Entries after “also recorded” stand apart in the source; their conditions may differ.
Experiments:
Assay type in all cases: in vivo, male Sprague-Dawley (SD) rats
[1] = system: Prostate-Specific Antigen (PSA); test: PSA expression in prostate tissue and serum of BPH rats (western blot); conditions: three weeks, CA 100 mg/kg, CAEF 200 mg/kg, CAEF formulation 200 mg/kg
[2] = Testosterone serum level in BPH rats; conditions: BPH induced rats after treatment
anti-apoptotic markers = test: Anti-apoptotic markers in BPH rats (FIGS. 8-13, summary); conditions: summary of FIGS. 8-13
Description: (§1) To assess the therapeutic effect of Chebulinic Acid (CA) and Chebulinic acid Enriched fraction (CAEF) on Benign Prostatic Hyperplasia (BPH), rat BPH model has been successfully generated by testosterone induction method. For model induction of BPH, Orchiectomy (Surgical removal of Testis) of rats was performed and then animals were left for ten days to recover. Now BPH was induced through the daily subcutaneous injections of Testosterone (5 mg/kg & 6.25 mg/ml in Corn Oil) at the inguinal region for 28 days continuously. While the treatment group received 7 days continuous administration of Testosterone and then Testosterone+CA (100 mg/kg B.W) or Testosterone+CAEF (100/200 mg/kg B.W.) or Testosterone+Finasteride (3 mg/kg) were administered orally once a day to these animals for next 21 days (FIG. 3). In another experiment the treatment group received 7 days continuous administration of Testosterone and then Testosterone+CAEF (100 mg/kg B.W.) administered orally once a day to these animals for next 4 weeks (group 1) 8 weeks (group 2) and 12 weeks (group 3) (FIG. 6). After that these animals were left for fasting overnight and sacrificed next day; their prostatic as well as other reproductive organs were dissected out. Portions of the prostatic ventral lobes were stored in 4% paraformaldehyde for histological and immuno-histochemical processing. […]

[3] = system: Testosterone-induced BPH rats; test: Prostate weight and prostate weight index (PI) in testosterone-induced BPH rat model; conditions: for Prostatic weight: BPH induced rats, vs induced group (FIGS. 3 and 6); for Prostate weight index (PI): oral once a day for 21 days, CA 100 mg/kg, CAEF 100/200 mg/kg, Finasteride 3 mg/kg, vs Testosterone induced group (FIG. 3)
Description: 12-14-week-old (3 month) male Sprague-Dawley (SD) rats with initial body weights of 200-220 g were taken from National Animal Laboratory Centre, CSIR-Central drug research institute (CDRI), Lucknow. The animals were maintained in conditions in accordance with the rules and regulation of animal ethical committee. These rats were housed in a pathogen-free room at 23±2° C. and a relative humidity of 70% with an alternating 12 h light/dark cycle. To assess the therapeutic effect of Chebulinic Acid (CA) and Chebulinic acid Enriched fraction (CAEF) on Benign Prostatic Hyperplasia (BPH), rat BPH model has been successfully generated by testosterone induction method. For model induction of BPH, Orchiectomy (Surgical removal of Testis) of rats was performed and then animals were left for ten days to recover. Now BPH was induced through the daily subcutaneous injections of Testosterone (5 mg/kg & 6.25 mg/ml in Corn Oil) at the inguinal region for 28 days continuously. While the treatment group received 7 days continuous administration of Testosterone and then Testosterone+CA (100 mg/kg B.W) or Testosterone+CAEF (100/200 mg/kg B.W.) or Testosterone+Finasteride (3 mg/kg) were administered orally once a day to these animals for next 21 days (FIG. 3). In another experiment the treatment group received 7 days continuous administration of Testosterone and then Testosterone+CAEF (100 mg/kg B.W.) administered orally once a day to these animals for next 4 weeks (group 1) 8 weeks (group 2) and 12 weeks (group 3) (FIG. 6). After that these animals were left for fasting overnight and sacrificed next day; their prostatic as well as other reproductive organs were dissected out. Portions of the prostatic ventral lobes were stored in 4% paraformaldehyde for histological and immuno-histochemical processing. Half of the remaining prostate tissue was stored in RNA later and the other half was stored at −80° C. for subsequent biochemical and molecular experiments. Blood samples were obtained from the caudal vena cava and collected in serum separating tubes. Testosterone induced BPH animal models were sacrificed after the simultaneous treatment of 21 days. The intact prostate tissue was dissected and removed carefully from these sacrificed animals. Now the prostate weight (PW) was measured and the prostate index (PI) was calculated as PW (mg)/Body Weight (gm)×100. Data were expressed as the mean±SEM of four animals per group (n=4 per group). The values were analysed using one-way analysis of variance. Values were considered statistically significant at p<0.05.

PSA = PSA level in serum of BPH rats (ELISA); conditions: summary statement, FIGS. 5 and 7
[4] = system: prostatic tissues in testosterone induced BPH rats; test: Histopathological examination (H&E) of prostate tissue in testosterone-induced BPH rats; conditions: for Histological conditions / architecture of the prostate: BPH induced rats (FIG. 4)
[5] = system: Poly [ADP-ribose] polymerase 1 (PARP1); test: Expression of PARP1 in BPH induced rat model; conditions: vs BPH induced group; finasteride positive control
Description: as §1

Procaspase 3 = test: Expression of Procaspase 3 in BPH induced rat model; conditions: vs induced animal model; finasteride positive control
[6] = system: Vascular endothelial growth factor (VEGF); test: Expression of VEGF in BPH induced rat model; conditions: within three weeks; vs non-treated induced BPH group; finasteride positive control

SMILES	PSA expression in prostate tissue [1]	PSA expression in serum [1]	Level of testosterone in sera [2]	Anti-apoptotic markers (anti-apoptotic markers)	Prostatic weight index compared with normal control group ([3]; 100/200 mg/kg dose (FIG. 3) and 100 mg/kg of CAEF (FIG. 6))	Prostatic weight [3]	Prostatic weight ([3]; listed as Chebulinic acid)	Prostate weight index (PI) [3]	Development of prostatic hyperplasia ([3]; testosterone-induced BPH rats)	Level of PSA in sera (PSA)	Histological conditions / architecture of the prostate [4]	Histological conditions / architecture of the prostate ([4]; listed as Chebulinic acid)	Glandular hyperplasia of the prostate (histopathological examination) ([4]; BPH rats)	Prostatic lumen area ([4]; H&E, CA/CAEF 100/200 mg/kg, vs Induced BPH group (FIG. 4))	Expression of PARP1 [5]	Expression of Procaspase 3 (Procaspase 3)	Expression of VEGF [6]
O=C(O)CC1C(=O)OC2C(COC(=O)c3cc(O)c(O)c(O)c3)OC(OC(=O)c3cc(O)c(O)c(O)c3)C(OC(=O)c3cc(O)c(O)c4c3C1C(O)C(=O)O4)C2OC(=O)c1cc(O)c(O)c(O)c1 [CA, 1.3,6-tri-O-galloyl-2,4-chebuloyl-beta-D-glucose]	down-regulated	down-regulated	reduced level	down-regulated	quite close to the normal control group	reduced significantly; also recorded: significant reduction	decreased the prostate weight	significantly decreased; also recorded: reduced significantly	significantly suppressed; also recorded: suppressed the development of prostatic hyperplasia considerably	reduced level	improved histological conditions	restored the altered histological architecture	mild glandular hyperplasia	increased prostatic lumen areas significantly	–	–	–
CC(C)(C)NC(=O)[C@H]1CC[C@H]2[C@@H]3CC[C@H]4NC(=O)C=C[C@]4(C)[C@H]3CC[C@]12C [Finasteride]	–	–	–	–	–	–	–	close to the 200 mg/kg CA/CAEF treated group	–	–	–	–	–	–	reduced expression	decreased expression	reduced expression
